Columns and labels:
[1] = biological target: T1, SHP2 (Homo sapiens, UniProt Q06124); test: Western blot, degradation of SHP2 in vitro; format: cell-based; settings: degradation of SHP2 in SUM159 cells, 24 hours with compound
T1 construct: endogenous in cells; host or cells: SUM159 triple-negative breast cancer cells
T1 sequence (Q06124 1-593): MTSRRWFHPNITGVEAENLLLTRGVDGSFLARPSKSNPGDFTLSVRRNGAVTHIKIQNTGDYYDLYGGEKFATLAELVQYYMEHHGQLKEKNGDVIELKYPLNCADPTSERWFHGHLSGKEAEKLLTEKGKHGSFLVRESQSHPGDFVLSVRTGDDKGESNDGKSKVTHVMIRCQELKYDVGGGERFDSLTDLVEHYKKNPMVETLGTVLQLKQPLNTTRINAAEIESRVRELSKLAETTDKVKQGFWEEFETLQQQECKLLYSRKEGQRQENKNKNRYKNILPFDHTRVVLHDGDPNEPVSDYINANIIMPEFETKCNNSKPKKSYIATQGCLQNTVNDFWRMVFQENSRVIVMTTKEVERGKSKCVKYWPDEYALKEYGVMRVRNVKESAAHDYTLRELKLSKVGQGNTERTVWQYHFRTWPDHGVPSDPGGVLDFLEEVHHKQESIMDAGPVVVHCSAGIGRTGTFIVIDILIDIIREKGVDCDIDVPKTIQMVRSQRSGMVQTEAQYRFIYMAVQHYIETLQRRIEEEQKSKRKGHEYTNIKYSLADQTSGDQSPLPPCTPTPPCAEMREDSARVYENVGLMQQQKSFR
Description: 1. The Biological Activity of Compounds was Determined by Western Blot Method Using the Following Method:
Reagents: Complete 1640 medium was purchased from Gibco. Fetal bovine serum was purchased from ThermoFisher. Trypsin was produced by ThermoFisher. SHP-2 antibody was produced by CST.
(§1) Cell line: SUM159 triple-negative breast cancer cell line was established by Rovera.
Method for assay: Cells growth in the logarithmic phase were collected and suspended in a 1640 medium containing 10% fetal bovine serum, which was then gently pipetted into a single-cell suspension. Viable cells were counted under microscope. 9 mL of the cell suspension was seeded and cultured in a 10 cm culture dish at a final concentration of 2×10^5 cells/mL. After cells were pre-cultured for 24 hours at 37° C. and 5% CO2, different concentrations of solutions of the compounds of the present disclosure in DMSO were added (the final concentration of DMSO was no more than 0.5%), and the negative control group was added with the same volume of DMSO alone. After cultured for another 24 hours, all cells were collected and washed with PBS. The cells were lysed with RIPA lysis buffer, and the lysates were collected into a 1.7 mL centrifuge tube. The proteins were fully denatured after heating in the metal bath at 95° C. for 10 minutes. After loading the samples onto the gel for Western blotting, electrophoresis was performed at a constant voltage of 100V until the band of bromophenol blue reached the terminal point. The proteins were transferred onto a cellulose acetate membrane using the wet transfer method at a constant current of 300-500 mA for 45 minutes, and the proteins were blocked with 5% BSA at room temperature for 1-2 hours. The proteins were incubated with primary antibody diluted 1:500 to 1:8000 at room temperature for 2 hours, and then washed three times. Subsequently, the proteins were incubated with secondary antibody at room temperature for 1 hour. The detection of proteins was performed using ultrasensitive ECL luminescent liquid such as Enlight, and signals were captured using an automatic X-ray film developing machine. For the test results, see the in vitro Western Blot experiment of Example 1 and the in vitro Western Blot experiment of Example 3.
The compounds of the present disclosure have good in vitro anti-solid tumor and anti-blood tumor activities and have low toxicity to normal cells.

[2] = system: SUM159 triple-negative breast cancer cell line; test: CCK8 method, cell viability; format: cell-based; settings: SUM159 cells, 72 hours, CCK8 absorbance
Description: 2. The Biological Activity of Compounds was Determined by CCK8 Method Using the Following Method:
Reagents: Complete RPMI 1640 medium was purchased from Gibco. Fetal bovine serum was purchased from ThermoFisher. Trypsin was produced by ThermoFisher. SHP-2 antibody was produced by CST. CCK8 was produced by abcam.
as §1
Method for assay: Cells growth in the logarithmic phase were collected and suspended in a RPMI 1640 medium containing 10% fetal bovine serum, which was then gently pipetted into a single-cell suspension. Viable cells were counted under microscope. The cells were seeded into a 96-well plate at a density of 3-6*10^3 cells per well and cultured in an incubator for 24 hours. Test compounds were diluted in multiples, and then the cell culture supernatant was added. The cells were cultured for another 72 hours, and 10 μL of CCK8 detection solution was added to each well. After incubating for 1-4 hours, the absorbance was measured using a microplate reader.

[3] = PAMPA experiment; format: in vitro ADME; settings: 1.8% lecithin membrane, drug test solution 10 μM, 37° C., 16 hours
Description: Reagents: lecithin, n-dodecane, HEPES, dimethyl sulfoxide (DMSO), acetonitrile
Instrument and equipment: Multiscreen 96-well plate (up Merck Millipore), Multiscreen 96-well plate (down Merck Millipore), electronic analytical balance, constant temperature incubator, high performance liquid chromatography-mass spectrometry (LC-MS)
Method for operation: Preparation of PAMPA artificial membrane: about 18 mg of lecithin was weighed accurately, and placed into a 1.5 mL EP tube. 1 mL of n-dodecane was added. The mixture was dissolved by ultrasonication, and then thoroughly mixed to obtain a 1.8% lecithin membrane.
The upper layer of the PAMPA model was the plate lid, the middle layer was the 96-well filter plate (donor plate), and the lower layer was the accepter plate. 5 μL of the above 1.8% lecithin membrane was added to the filter membrane of the donor plate, and then 150 μL of the drug test solution (10 μM) was added. 300 μL of HEPES solution was added to each well of the accepter plate (completed within 10 minutes). The donor plate was slowly placed onto the accepter plate and incubated at 37° C. for 16 hours.
LC-MS detection: 100 μL of the positive control and the test compound was weighed respectively, to which 100 μL of acetonitrile-DMSO solution [acetonitrile-DMSO (4:1)] was added. The mixture was mixed well, and detected by LC-MS at OH and 16H. The corresponding molecular ion peak was extracted and the peak area was obtained; After the PAMPA model was incubated at 37° C. for 16 h, 100 μL of the test solution in the donor plate and the accepter plate was weighed respectively, to which 100 μL of acetonitrile-DMSO solution [acetonitrile-DMSO (4:1)] was added. The mixture was mixed well, and detected by LC-MS. The corresponding molecular ion peak was extracted, the peak area was obtained, and the concentration was calculated.

SMILES | DC50 [1] | IC50 [2] | PAMPA (−Log Pe) [3]
CN1CC(=O)OCc2ccc3c(=O)cc(oc3c2)-c2ccc(cc2Cl)OCCOC/C=C/COCCOc2ccc3c(c2)CN(C3=O)C2CCC(=O)N(COC(=O)C1)C2=O (centres unmarked) [Example 9] | 4.21 nM | 2.39 nM | 5.52
O=C1CCC2C(=O)N1COP(=O)(O)OCc1cc3oc(cc(=O)c3cc1I)-c1ccc(cc1Cl)OCCOC/C=C\COCCOc1ccc3c(c1)C(=O)N2C3=O (centres unmarked) [Example 2] | – | 1000 nM | 6.0
O=C1CC(=O)OCN2C(=O)CCC(C2=O)N2Cc3cc(ccc3C2=O)OCCOC/C=C\COCCOc2ccc(c(Cl)c2)-c2cc(=O)c3cc(I)c(cc3o2)CO1 (centres unmarked) [Example 1] | 210 nM | 28.8 nM | 6.71
CN1CC(=O)OCc2ccc3c(=O)cc(oc3c2)-c2ccc(cc2Cl)OCCOCCCCOCCOc2ccc3c(c2)CN(C3=O)C2CCC(=O)N(COC(=O)C1)C2=O (centres unmarked) [Example 10] | 5.94 nM | 3.5 nM | 5.56

More lines, now with the values ahead:

DC50 [1] | IC50 [2] | PAMPA (−Log Pe) [3] | SMILES
37 nM | 7.43 nM | 5.94 | O=C1OCc2cc3oc(cc(=O)c3cc2I)-c2ccc(cc2Cl)OCCOC/C=C\COCCOc2ccc3c(c2)CN(C3=O)C2CCC(=O)N(COC1=O)C2=O (centres unmarked) [Example 3]
500 nM | 200 nM | 5.78 | O=C1OCc2cc3oc(cc(=O)c3cc2I)-c2ccc(cc2Cl)OCCOC/C=C\COCCOc2ccc3c(c2)CN(C3=O)C2CCC(=O)N(COC(=O)c3cccc1c3)C2=O (centres unmarked) [Example 5]
– | 5.33 nM | 4.68 | N[C@H]1CCC(=O)OCc2ccc3c(=O)cc(oc3c2)-c2ccc(cc2Cl)OCCOC/C=C/COCCOc2ccc3c(c2)CN(C3=O)C2CCC(=O)N(COC1=O)C2=O (some centres unmarked) [Example 8]
188 nM | 23.1 nM | – | O=C1CC(=O)OCN2C(=O)CCC(C2=O)N2Cc3cc(ccc3C2=O)OCCOC/C=C\COCCOc2ccc(c(Cl)c2)-c2cc(=O)c3ccc(cc3o2)CO1 (centres unmarked) [Example 7]
10 nM | > 5000 nM | 8.55 | O=C1OCc2ccc3c(=O)cc(oc3c2)-c2ccc(cc2Cl)OCCCC/C=C/CCCCOc2ccc3c(c2)CN(C3=O)C2CCC(=O)N(COC(=O)c3cccc1c3)C2=O (centres unmarked) [Example 6]
– | 718 nM | 6.11 | O=C1CC(=O)OCN2C(=O)CCC(C2=O)N2Cc3cc(ccc3C2=O)OCCCC/C=C\CCCCOc2ccc(c(Cl)c2)-c2cc(=O)c3ccc(cc3o2)CO1 (centres unmarked) [Example 4]

From patent US20260217730A1, “PROTEOLYSIS TARGETING CHIMERA COMPOUND” (BEIJING TIDE PHARMACEUTICAL CO., LTD., priority 2023, published 2026)
